Reference: patent publication US20110166078A1, “OLIGOSACCHARIDE COMPOUNDS FOR USE IN MOBILISING STEM CELLS” (ENDOTIS PHARMA, priority 2008, published 2011)

Experiments:
[1] = system: hematopoietic stem cells (LSK cells) in blood; experiment: Hematopoietic stem cell mobilisation, sequential G-CSF, AMD3100 and compound 240; assay type: in vivo; conditions: compound 240 i.v. 15 mg/kg 30 min after AMD3100 s.c. 5 mg/kg, after G-CSF 2.5 μg s.c.; C57BL/6 mice; FIG. 5
Method: During cancer treatment, patients receive injections of a cytokine (G-CSF) mobilising stem cells. These stem cells are then collected from the peripheral blood using an apheresis machine. Apheresis is usually performed for several days until enough stem cells have been collected to support treatment with high-dose chemotherapy and/or radiotherapy. In the experiments of the present invention, different doses (5, 15 and 30 mg/kg body weight (bw)) and administration routes (intraperitoneal, intravenous and subcutaneous) were tested along time course experiments in mice (30 min, 1 h, 3 h and 5 h).
C57BL/6 mice (8-10 weeks old, obtained from Jackson Laboratory, USA) were housed 15 days in the CEA/DSV/iRCM animal facilities. Animal care was in accordance with French Government procedures (Services Veterinaires de la Sante et de la Production Animale, Ministere de l'Agriculture, France).
i) intravenously: Anesthetized mice were placed on their left side. Injection of 100 μl of compound was performed with insulin syringe into the retro-orbital sinus of the right eye of mice. […]
Two months aged-C57BL/6 mice were injected s.c. with 2.5 μg of G-CSF twice a day for 2 days. […] White blood cells were counted and labeled with lineage-PE-Cy7 (L), Sca-PE (S), and cKit-APC (K) antibodies for data acquisition by cytometry. […]

[2] = system: FGF-2-induced NHDF (Normal Human Dermal Fibroblast) cell proliferation; experiment: FGF-2-induced NHDF proliferation assay; assay type: cell-based; conditions: compound 0.1 to 30 μM
Method: The activities of the compounds of the present invention were tested using a proliferation assay, such as the one described by N. Ali et al., J Pharmacol Sci, 2005, 98, 130-141. A defined number of cells is seeded in each well of a culture plate. In order to stimulate cell proliferation, a growth factor is added in some wells, while others remain unstimulated (basal proliferation conditions). To monitor the effects of substances of interest (oligosaccharides compounds according to the present invention) on basal and growth factor-induced cell proliferation, substances of interest are added at different concentrations (i.e. 0.1, 0.3, 1, 3, 10 or 30 μM) in presence or absence of the growth factor, respectively. After an incubation period of 24 hours, the total number of cells is estimated in all samples (generally through an indirect method, such as incorporation of radioactivity into the newly synthesised DNA or colorimetric assays based on cellular enzyme activities or metabolite production). The total number of cells for the control sample in which no substance of interest nor growth factor have been added is set to 1. The total number of cells in all the other samples is compared to this value in order to obtain the relative proliferation index.
Typically, cells are seeded in 48 or 96-well plates. After 2 h (i.e. the time required for cells to adhere to the support) the normal culture media is replaced by a minimal essential culture media in which cells are grown for 24 h (starvation period). This step is used to reduce cell growth (cell metabolism is slowed down in order to better visualise the growth factor stimulation effect) before adding an angiogenic protein, such as a growth factor i.e. FGF-2 or PDGF-β. No growth factor is added in basal proliferation conditions (independently of the presence or absence of the oligosaccharide of the present invention). […]
Following addition of the angiogenic protein (growth factor) over a 24 h stimulation period, a commercial reagent containing a substrate for a cellular enzyme is added and incubated for couple of hours. The degradation of the substrate by the enzyme leads to the production of a coloured product which is titrated by absorbance measurement. […]
In the following experiments the effects of compounds 240 and 241 (concentrations from 0.1 to 30 μM) were evaluated on FGF-2-induced NHDF (Normal Human Dermal Fibroblast) cell proliferation. […]

## C#CCCCOC1OC(COS(=O)(=O)[O-])C(OC2OC(C(=O)[O-])C(OC3OC(COS(=O)(=O)[O-])C(OC4OC(C(=O)[O-])C(OC5OC(COS(=O)(=O)[O-])C(OC6OC(C(=O)[O-])C(OC7OC(COS(=O)(=O)[O-])C(OC8OC(C(=O)[O-])C(OCc9ccccc9)C(OCc9ccccc9)C8OS(=O)(=O)[O-])C(OCc8ccccc8)C7NS(=O)(=O)[O-])C(OCc7ccccc7)C6OS(=O)(=O)[O-])C(OCc6ccccc6)C5NS(=O)(=O)[O-])C(OCc5ccccc5)C4OS(=O)(=O)[O-])C(OCc4ccccc4)C3NS(=O)(=O)[O-])C(OCc3ccccc3)C2OS(=O)(=O)[O-])C(OCc2ccccc2)C1NS(=O)(=O)[O-].[Na+].[Na+].[Na+].[Na+].[Na+].[Na+].[Na+].[Na+].[Na+].[Na+].[Na+].[Na+].[Na+].[Na+].[Na+].[Na+] (stereo not drawn) [Compound 240]
[1]
  HSCs mobilized, times more than with G-CSF+AMD3100 combination: About 3 times
[2]; FGF-2 5 ng/ml, FIGS. 6-7
  inhibition of FGF-2-induced fibroblast proliferation: inhibit FGF-2-induced fibroblast proliferation (starting in the micromolar range)
[2]; control conditions, no growth factor
  basal NHDF proliferation: did not seem to be affected
